# Source: US10160747B2, “Compounds and methods for kinase modulation, and indications therefor” (Plexxikon Inc., priority 2016, dated 2018)
# Experiments:
# [1] = test system: MOLM-14 D835Y (endogenous FLT3 ITD and transfected FLT3 D835Y); assay: MOLM-14 D835Y cell proliferation assay (CellTiter-Glo); format: cell-based; conditions: Homo sapiens, MOLM-14, 72 h; 3 d growth, GMean
# Method in brief: (§1)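 MOLM-14 cells (FLT3 ITD) carrying D835Y or F691L, 1×10^4 cells/well, eight 1:3 dilutions from 1 μM final, 0.2% DMSO, 3 days at 37 °C, 5% CO2. Viability by CellTiter-Glo luminescence (ATP content); IC50 from concentration-response.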
# [2] = test system: MOLM-14 F691L (endogenous FLT3 ITD and transfected FLT3 F691L); assay: MOLM-14 F691L cell proliferation assay (CellTiter-Glo); format: cell-based; conditions: Homo sapiens, MOLM-14, 72 h; 3 d growth, GMean
# Method in brief: as §1
# [3] = target: CSF1R (Homo sapiens, UniProt P07333); assay: CSF1R 100 ATP 8 pt kinase assay (Table 6); format: biochemical
# Description: The following Table 6 provides data indicating FLT3 ITD, D835Y and F691L; c-KIT and CSF1R biochemical and/or cell inhibitory activity for exemplary compounds as described herein.
# CSF1R, sequence (P07333 20-972, species assumed): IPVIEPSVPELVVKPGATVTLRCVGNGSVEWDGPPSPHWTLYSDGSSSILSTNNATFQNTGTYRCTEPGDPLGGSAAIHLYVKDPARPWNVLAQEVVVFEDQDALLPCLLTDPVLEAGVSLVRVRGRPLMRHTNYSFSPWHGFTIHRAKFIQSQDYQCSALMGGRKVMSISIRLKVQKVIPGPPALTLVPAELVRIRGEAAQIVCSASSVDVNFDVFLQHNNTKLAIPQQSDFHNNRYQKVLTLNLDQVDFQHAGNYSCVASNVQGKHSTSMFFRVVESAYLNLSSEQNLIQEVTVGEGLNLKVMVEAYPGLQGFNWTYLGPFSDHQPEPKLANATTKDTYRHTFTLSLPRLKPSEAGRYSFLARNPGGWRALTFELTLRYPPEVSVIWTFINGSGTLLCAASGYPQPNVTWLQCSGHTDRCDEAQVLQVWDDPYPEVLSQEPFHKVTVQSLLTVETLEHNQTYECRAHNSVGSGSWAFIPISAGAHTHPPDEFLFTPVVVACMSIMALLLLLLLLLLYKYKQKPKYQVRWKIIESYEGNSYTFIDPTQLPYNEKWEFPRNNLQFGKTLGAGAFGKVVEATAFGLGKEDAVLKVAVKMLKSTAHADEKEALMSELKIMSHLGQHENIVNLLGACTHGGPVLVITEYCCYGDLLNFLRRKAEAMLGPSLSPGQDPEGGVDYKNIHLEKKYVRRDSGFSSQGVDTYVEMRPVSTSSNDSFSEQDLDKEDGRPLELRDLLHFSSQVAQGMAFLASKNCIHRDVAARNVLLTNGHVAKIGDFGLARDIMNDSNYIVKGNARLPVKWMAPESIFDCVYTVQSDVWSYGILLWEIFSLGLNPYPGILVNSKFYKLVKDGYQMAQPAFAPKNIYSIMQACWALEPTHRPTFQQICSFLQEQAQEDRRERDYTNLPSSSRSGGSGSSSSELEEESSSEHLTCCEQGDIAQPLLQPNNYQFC
IC50 [1] [µM],IC50 [2] [µM],IC50 [3] [µM],Compound
0.0001 to 10,0.0001 to 10,,"CC(=O)c1c[nH]c2ncc(-c3ccc(CC(=O)Nc4cnc(C)c(C(F)(F)F)c4)c(F)c3)cc12 [Compound P-0063, 2-[4-(3-acetyl-1H-pyrrolo[2,3-b]pyridin-5-yl)-2-fluoro-phenyl]-N-[6-methyl-5-(trifluoromethyl)-3-pyridyl]acetamide]"
0.0001 to 10,0.0001 to 10,,"Cc1ncc(NC(=O)Cc2ccc(-c3cnc(Nc4cnn5ccccc45)nc3)cc2F)cc1C(F)(F)F [Compound P-0065, 2-(2-fluoro-4-(2-(pyrazolo[1,5-a]pyridin-3-ylamino)pyrimidin-5-yl)phenyl)-N-(6-methyl-5-(trifluoromethyl)pyridin-3-yl)acetamide]"
0.0001 to 10,0.0001 to 10,,"Cc1ncc(NC(=O)Cc2ccc(-c3cnc4[nH]nc(C5CC5)c4c3)cc2F)cc1C(F)(F)F [Compound P-0066, 2-(4-(3-cyclopropyl-1H-pyrazolo[3,4-b]pyridin-5-yl)-2-fluorophenyl)-N-(6-methyl-5-(trifluoromethyl)pyridin-3-yl)acetamide]"
0.0001 to 10,0.0001 to 10,,"Cc1ncc(NC(=O)Cc2ccc(-c3cnc4[nH]c(Cl)cc4c3)cc2F)cc1C(F)(F)F [Compound P-0067, 2-[4-(2-chloro-1H-pyrrolo[2,3-b]pyridin-5-yl)-2-fluoro-phenyl]-N-[6-methyl-5-(trifluoromethyl)-3-pyridyl]acetamide]"
0.0001 to 10,0.0001 to 10,,"CCC(=O)c1c[nH]c2ncc(-c3ccc(CC(=O)Nc4cncc(C(F)(F)F)c4)c(F)c3)cc12 [Compound P-0068, 2-[2-fluoro-4-(3-propanoyl-1H-pyrrolo[2,3-b]pyridin-5-yl)phenyl]-N-[5-(trifluoromethyl)-3-pyridyl]acetamide]"
0.0001 to 10,0.0001 to 10,0.0001 to 10,"CCC(=O)c1c[nH]c2ncc(-c3ccc(CC(=O)Nc4cnc(C)c(C(F)(F)F)c4)c(F)c3)cc12 [Compound P-0070, 2-[2-fluoro-4-(3-propanoyl-1H-pyrrolo[2,3-b]pyridin-5-yl)phenyl]-N-[6-methyl-5-(trifluoromethyl)-3-pyridyl]acetamide]"
0.0001 to 10,0.0001 to 10,,"O=C(Cc1ccc(-c2cnc(Nc3cnn4ccccc34)nc2)c(F)c1)Nc1cncc(C(F)(F)F)c1 [Compound P-0071, 2-[3-fluoro-4-[2-(pyrazolo[1,5-a]pyridin-3-ylamino)pyrimidin-5-yl]phenyl]-N-[5-(trifluoromethyl)-3-pyridyl]acetamide]"
0.0001 to 10,0.0001 to 10,0.0001 to 10,"O=C(Cc1ccc(-c2cnc3[nH]nc(C4CC4)c3c2)cc1F)Nc1cncc(C(F)(F)F)c1 [Compound P-0072, 2-[4-(3-cyclopropyl-1H-pyrazolo[3,4-b]pyridin-5-yl)-2-fluoro-phenyl]-N-[5-(trifluoromethyl)-3-pyridyl]acetamide]"
0.0001 to 10,0.0001 to 10,0.0001 to 10,"O=C(Cc1ccc(-c2cnc3[nH]nc(C4CC4)c3c2)cc1)Nc1cncc(C(F)(F)F)c1 [Compound P-0073, 2-[4-(3-cyclopropyl-1H-pyrazolo[3,4-b]pyridin-5-yl)phenyl]-N-[5-(trifluoromethyl)-3-pyridyl]acetamide]"
0.0001 to 10,0.0001 to 10,,"O=C(Cc1ccc(-c2cnc(Nc3cnn4ccccc34)nc2)cc1)Nc1cncc(C(F)(F)F)c1 [Compound P-0074, 2-[4-[2-(pyrazolo[1,5-a]pyridin-3-ylamino)pyrimidin-5-yl]phenyl]-N-[5-(trifluoromethyl)-3-pyridyl]acetamide]"
0.0001 to 10,0.0001 to 10,,"Cc1ncc(NC(=O)Cc2ccc(-c3cnc(Nc4cnn(C)c4C)nc3)cc2F)cc1C(F)(F)F [Compound P-0076, 2-[4-[2-[(1,5-dimethylpyrazol-4-yl)amino]pyrimidin-5-yl]-2-fluoro-phenyl]-N-[6-methyl-5-(trifluoromethyl)-3-pyridyl]acetamide]"
0.0001 to 10,0.0001 to 10,,"Cc1nn(C)cc1Nc1ncc(-c2ccc(CC(=O)Nc3cnc(C)c(C(F)(F)F)c3)c(F)c2)cn1 [Compound P-0077, 2-[4-[2-[(1,3-dimethylpyrazol-4-yl)amino]pyrimidin-5-yl]-2-fluoro-phenyl]-N-[6-methyl-5-(trifluoromethyl)-3-pyridyl]acetamide]"
0.0001 to 10,0.0001 to 10,,"Cn1cnc(Nc2ncc(-c3cc(F)c(CC(=O)Nc4cncc(C(F)(F)F)c4)cc3F)cn2)c1 [Compound P-0078, 2-(2,5-difluoro-4-(2-((1-methyl-1H-imidazol-4-yl)amino)pyrimidin-5-yl)phenyl)-N-(5-(trifluoromethyl)pyridin-3-yl)acetamide]"
0.0001 to 10,0.0001 to 10,,"Cc1ncc(NC(=O)Cc2ccc(-c3cnc4[nH]cc(Cl)c4n3)cc2)cc1C(F)(F)F [Compound P-0079, 2-(4-(7-chloro-5H-pyrrolo[2,3-b]pyrazin-2-yl)phenyl)-N-(6-methyl-5-(trifluoromethyl)pyridin-3-yl)acetamide]"
0.0001 to 10,0.0001 to 10,,"Cn1cc(Nc2ncc(-c3ccc(CC(=O)Nc4cncc(C5CC5)c4)c(F)c3)cn2)cn1 [Compound P-0081, N-(5-cyclopropyl-3-pyridyl)-2-[2-fluoro-4-[2-[(1-methylpyrazol-4-yl)amino]pyrimidin-5-yl]phenyl]acetamide]"
0.0001 to 10,0.0001 to 10,,"Cn1cc(Nc2ncc(-c3ccc(CC(=O)Nc4cc(C(F)(F)F)ccn4)c(F)c3)cn2)cn1 [Compound P-0082, 2-[2-fluoro-4-[2-[(1-methylpyrazol-4-yl)amino]pyrimidin-5-yl]phenyl]-N-[4-(trifluoromethyl)-2-pyridyl]acetamide]"
0.0001 to 10,0.0001 to 10,,"Cn1cc(Nc2ncc(-c3ccc(CC(=O)Nc4ccnc(C(F)(F)F)c4)c(F)c3)cn2)cn1 [Compound P-0083, 2-[2-fluoro-4-[2-[(1-methylpyrazol-4-yl)amino]pyrimidin-5-yl]phenyl]-N-[2-(trifluoromethyl)-4-pyridyl]acetamide]"
0.0001 to 10,0.0001 to 10,,"Cn1cc(Nc2ncc(-c3ccc(CC(=O)Nc4cncc(C(F)(F)F)c4)c(F)c3)cn2)cn1 [Compound P-0084, 2-[2-fluoro-4-[2-[(1-methylpyrazol-4-yl)amino]pyrimidin-5-yl]phenyl]-N-[5-(trifluoromethyl)-3-pyridyl]acetamide]"
0.0001 to 10,0.0001 to 10,,"COc1cncc(NC(=O)Cc2ccc(-c3cnc(Nc4cnn(C)c4)nc3)cc2F)c1 [Compound P-0086, 2-[2-fluoro-4-[2-[(1-methylpyrazol-4-yl)amino]pyrimidin-5-yl]phenyl]-N-(5-methoxy-3-pyridyl)acetamide]"
0.0001 to 10,0.0001 to 10,,"Cn1cc(Nc2ncc(-c3ccc(CC(=O)NCc4ccc(C(F)(F)F)nc4)c(F)c3)cn2)cn1 [Compound P-0087, 2-[2-fluoro-4-[2-[(1-methylpyrazol-4-yl)amino]pyrimidin-5-yl]phenyl]-N-[[6-(trifluoromethyl)-3-pyridyl]methyl]acetamide]"
0.0001 to 10,0.0001 to 10,,"Cn1cc(Nc2ncc(-c3ccc(CC(=O)NCc4ccccn4)c(F)c3)cn2)cn1 [Compound P-0088, 2-[2-fluoro-4-[2-[(1-methylpyrazol-4-yl)amino]pyrimidin-5-yl]phenyl]-N-(2-pyridylmethyl)acetamide]"
0.0001 to 10,0.0001 to 10,,"COc1ncc(NC(=O)Cc2ccc(-c3cnc(Nc4cnn(C)c4)nc3)cc2F)cc1C(F)(F)F [Compound P-0089, 2-[2-fluoro-4-[2-[(1-methylpyrazol-4-yl)amino]pyrimidin-5-yl]phenyl]-N-[6-methoxy-5-(trifluoromethyl)-3-pyridyl]acetamide]"
0.0001 to 10,0.0001 to 10,,"Cn1cc(Nc2ncc(-c3ccc(CC(=O)Nc4cncc(C(C)(F)F)c4)c(F)c3)cn2)cn1 [Compound P-0090, N-[5-(1,1-difluoroethyl)-3-pyridyl]-2-[2-fluoro-4-[2-[(1-methylpyrazol-4-yl)amino]pyrimidin-5-yl]phenyl]acetamide]"
